Reference: publication PMC6534582 (Nature Communications, 2019)
No end group written: not given here.

What was measured:
[1] = tested on: Mof^f/f;Cre-ER brown preadipocytes; assay: Growth rate of Mof KO cells; type: cell-based, mouse; details: for growth rate of Mof KO cells: 4OHT
Description: (§1) Mof^f/f mice were crossed with Cre-ER (Jackson no. 008463) to generate Mof^f/f;Cre-ER mice[10]. Primary brown preadipocytes were isolated from interscapular brown adipose tissue of newborn (P0) Mof^f/f;Cre-ER pups and immortalized by SV40T[38]. All mouse experiments were performed in accordance with the NIH Guide for the Care and Use of Laboratory Animals and approved by the Animal Care and Use Committee of NIDDK, NIH. For rescue experiment by ectopic expression of rat MOF, immortalized Mof^f/f;Cre-ER preadipocytes stably expressing WT or K274R MOF were established using lentivirus-mediated gene transfer. Briefly, 293FT lentiviral packaging cells were transfected with pLenti-CMV plasmids expressing MYC-tagged WT or K274R rat MOF. Preadipocytes were infected with those lentivirus-containing media, followed by puromycin selection for two passages. Those expressing MYC-tagged rat MOF were confirmed by western blot.

[2] = tested on: Jmjd3 mRNA in Mof^f/f;Cre-ER brown preadipocytes; assay: qRT-PCR of Jmjd3 mRNA (control gene); type: cell-based, mouse
Description: as §1
(§2) Western blot of histone modifications using acid extracts or of nuclear proteins using nuclear extracts were done as described[45],[46]. Total RNA was extracted using TRIzol (Invitrogen) and reverse transcribed using the ProtoScript II First-Strand cDNA Synthesis Kit (NEB), following the manufacturers’ instructions. qRT-PCR was done using the following SYBR green primers: Mof (forward, 5’–[…]–3’, and reverse, 5’–[…]–3’). qPCR was done using Luna® Universal qPCR Master Mix according to the manufacturers’ instructions (NEB). To detect truncated Mof transcripts after 4-OHT treatment (2 µM), RT-PCR was performed as described.

[3] = tested on: Mof mRNA in Mof^f/f;Cre-ER brown preadipocytes; assay: qRT-PCR of Mof mRNA; type: cell-based, mouse
Description: as §1, §2

[4] = tested on: MLL4-PHD6 (aa 1503–1562), wild-type; assay: 1H,15N HSQC NMR titration of WT MLL4-PHD6; type: binding, human; details: for chemical shift perturbations (CSPs): 1H,15N HSQC titration, 0.15 mM 15N-labeled MLL4-PHD6, PBS pH 6.5, 298 K
Description: (§3) The PHD6 domain of human MLL4 (aa 1503–1562) was cloned into a pCool vector. […] The human MLL3 PHD7 domain (aa 1083–1143) was cloned into a pGEX-6p vector. All constructs were expressed in Rosetta2 (DE3) pLysS cells. Protein production was induced with 0.5 mM IPTG overnight at 16̊ °C in Luria broth (LB) or minimal media (M9) supplemented with ^15NH4Cl and 0.06 mM ZnCl2 or ^15NH4Cl, ^13C-glucose, and 0.06 mM ZnCl2. The GST-tagged PHD proteins were purified on glutathione Sepharose 4B beads (GE Healthcare) in 50 mM Tris-HCl (pH 7.5) buffer, supplemented with 250 mM NaCl and 2 mM dithiothreitol (DTT). The GST tag was cleaved with Thrombin or TEV protease overnight at 4 °̊C. Unlabeled proteins were further purified by size exclusion chromatography and concentrated in Millipore concentrators. All mutants were generated by site-directed mutagenesis using the Stratagene QuikChange mutagenesis protocol, grown, and purified as WT proteins.
NMR samples for structure determination were prepared in 20 mM Tris-HCl (pH 7.0) buffer, supplemented with 100 mM NaCl, 5 mM DTT, and 8% D2O. […] 3D ^15N-/^13C-filtered ^13C- and ^15N-edited NOESY-HSQC spectra (mixing time of 150 ms) were collected to obtain intermolecular distance restraints.
(§4) For NMR titration experiments, ^1H,^15N HSQC spectra of 0.15 mM uniformly ^15N-labeled WT or mutated MLL4-PHD6 were recorded while peptides (synthesized by SynPeptide) were added stepwise. All experiments were carried out in phosphate-buffered saline buffer (pH 6.5).

[5] = tested on: MLL4-PHD6; assay: 1H,15N HSQC of linked H4-G7-MLL4-PHD6 construct; type: binding, human
Description: as §3, §4

[6] = target: T1, PHD6 finger of human MLL4 (aa 1503-1562) (human, UniProt O14686 1503-1562); assay: NMR titration; 1H,15N HSQC spectra of 2.5 mM 13C/15N-labelled MLL4-PHD6 upon titration with H4K16ac (11-21) peptide at protein:ligand 1:0, 1:2, 1:3; 20 mM Tris-HCl pH 7.0, 100 mM NaCl, 5 mM DTT, 8% D2O; 298 K; details: both partners purified
T1 construct: PHD6 finger of human MLL4 (KMT2D), aa 1503-1562, cloned into a pCool vector; Uniformly 15N-labelled for the titrations at 0.15 mM; also called MLL4-PHD6; MLL4-PHD6 1503-1562; source: Rosetta2 (DE3) pLysS cells, purified (glutathione Sepharose 4B; GST tag cleaved)
T1 sequence (O14686 1503-1562): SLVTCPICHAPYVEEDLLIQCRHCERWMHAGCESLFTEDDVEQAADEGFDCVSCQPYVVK

[7] = target: T2, PHD6 finger of MLL4 (MLL4-PHD6, aa 1503–1562), wild type (human, UniProt O14686 1503-1562); assay: NMR titration; 1H,15N HSQC of 0.15 mM uniformly 15N-labeled PHD finger (WT or mutated), peptides added stepwise; phosphate-buffered saline pH 6.5; 298 K; details: both partners purified
T2 construct: human MLL4 (KMT2D), PHD6 finger, aa 1503-1562; cloned into a pCool vector; 15N- or 13C/15N-labelled for NMR; also called MLL4-PHD6_(1503–1562); PHD6 domain of human MLL4; source: E. coli Rosetta2 (DE3) pLysS, purified (glutathione Sepharose, GST cleaved, SEC for unlabeled protein)
T2 sequence (O14686 1503-1562): as above

[8] = target: T2, PHD6 finger of MLL4 (MLL4-PHD6, aa …); assay: NMR structure; solution structure; 2.5 mM 13C/15N-labeled MLL4-PHD6 and 7.5 mM H4K16ac (11–21) peptide; 20 mM Tris-HCl pH 7.0, 100 mM NaCl, 5 mM DTT, 8% D2O; 298 K; details: both partners purified
[9] = target: T3, MLL4-PHD6 part of the linked H4-G7-MLL4-PHD6 construct (human, UniProt O14686 1503-1562); assay: NMR, 1H,15N HSQC spectra of a linked construct compared with free and peptide-bound PHD6; H4 (11–23) joined to MLL4-PHD6 on one chain through a hepta-glycine linker; wild type and H4 mutants; details: both partners purified
T3 construct: human MLL4 (KMT2D), PHD6 finger; aa 1503-1562 by the methods, 1503-1560 by the results; in the assay joined at its N-terminus through GGGGGGG to H4 residues 11-23 (m15 or its mutants) on one chain; also called H4_(11–23)-G7-PHD6 (PHD6 part); source: E. coli Rosetta2 (DE3) pLysS, purified
T3 sequence (O14686 1503-1562): as above

[10] = target: T1, PHD6 finger of human MLL4 (aa 1503-1562); assay: NMR titration; 1H,15N HSQC spectra of 0.15 mM uniformly 15N-labelled MLL4-PHD6 while peptide was added stepwise up to a protein:peptide molar ratio of 1:5; phosphate-buffered saline pH 6.5; 298 K; details: both partners purified
[11] = 4OHT-treated, technical replicate 1
[12] = 4OHT-treated, technical replicate 2
[13] = after two rounds of 4OHT treatment

## CC/C(=C(\c1ccc(O)cc1)c1ccc(OCCN(C)C)cc1)c1ccccc1 [4OHT, 4-hydroxytamoxifen]
[1]; D1, average of two replicates (D0 = 1; Mock 3.715)
  growth rate of Mof KO cells: 2.81
[1]; D1, replicate 1 (Mock 3.89)
  growth rate of Mof KO cells: 2.98
[1]; D1, replicate 2 (Mock 3.54)
  growth rate of Mof KO cells: 2.64
[1]; D2, average of two replicates (D0 = 1; Mock 6.365)
  growth rate of Mof KO cells: 4.725
[1]; D2, replicate 1 (Mock 5.82)
  growth rate of Mof KO cells: 4.59
[1]; D2, replicate 2 (Mock 6.91)
  growth rate of Mof KO cells: 4.86
[1]; D3, average of two replicates (D0 = 1; Mock 10.695)
  growth rate of Mof KO cells: 7.02
[1]; D3, replicate 1 (Mock 9.81)
  growth rate of Mof KO cells: 6.59
[1]; D3, replicate 2 (Mock 11.58)
  growth rate of Mof KO cells: 7.45
[1]; D4, average of two replicates (D0 = 1; Mock 17.965)
  growth rate of Mof KO cells: 12
[1]; D4, replicate 1 (Mock 16.98)
  growth rate of Mof KO cells: 12.54
[1]; D4, replicate 2 (Mock 18.95)
  growth rate of Mof KO cells: 11.46
[1]; D5, average of two replicates (D0 = 1; Mock 25.18)
  growth rate of Mof KO cells: 15.215
[1]; D5, replicate 1 (Mock 26.41)
  growth rate of Mof KO cells: 14.49
[1]; D5, replicate 2 (Mock 23.95)
  growth rate of Mof KO cells: 15.94
[1]; D4
  growth, 4OHT average relative to Mock: 66.7965
[1]; D5
  growth, 4OHT average relative to Mock: 60.4249
[2]; 4OHT-treated Mof^f/f;Cre-ER preadipocytes, average of two technical replicates, Mock average 1.00005, STDEV in own column
  relative Jmjd3 mRNA level: 0.8326
[2]; [11]
  relative Jmjd3 mRNA level: 0.841
[2]; [12]
  relative Jmjd3 mRNA level: 0.8241
[2]; [13]
  mRNA of control gene Jmjd3: unaffected
[3]; 4OHT-treated Mof^f/f;Cre-ER preadipocytes, average of two technical replicates, single experiment, Mock average 1.00268, STDEV in own column
  relative Mof mRNA level: 0.1967
[3]; [11]
  relative Mof mRNA level: 0.2148
[3]; [12]
  relative Mof mRNA level: 0.1786
[3]; [13]
  mRNA level of Mof: significantly decreased

## CC(=O)NCCCC[C@H](N)C(=O)O [Kac]
[4]
  chemical shift perturbations (CSPs): failed to induce CSPs

## H4K16ac (11–21): H4K16ac peptide (residues 11–21) used for NMR structure; 15N/13C-labeled form synthesized by Bio-Synthesis
[4]; 7.5 mM H4K16ac (11–21) with 2.5 mM 13C/15N-labeled MLL4-PHD6, 20 mM Tris-HCl pH 7.0, 100 mM NaCl, 5 mM DTT, 8% D2O, 298 K, 1H,15N HSQC and 1H,13C HSQC
  saturation of MLL4-PHD6 by 3-fold excess of peptide: almost saturated

## H4_1–9: H4 peptide (residues 1–9 of H4) (SGRGKGGKG)
[4]
  chemical shift perturbations (CSPs): no chemical shift perturbations

## H4_8–25: peptide encompassing residues 8–25 of H4 (KGLGKGGAKRHRKVLRDN)
[4]
  chemical shift perturbations (CSPs): CSPs similar in directions to CSPs induced by the longer H4_1–23 peptide

## H4_12–23: peptide encompassing residues 12–23 of H4 (KGGAKRHRKVLR)
[4]
  chemical shift perturbations (CSPs): CSPs similar in directions to CSPs induced by the longer H4_1–23 peptide

## linked H4-MLL4-PHD6 construct: aa 11–23 of H4, hepta-glycine (GGGGGGG) linker, aa 1503–1562 of MLL4-PHD6
[5]; H4K12 mutated to alanine in linked construct
  spectral changes on mutation: only small spectral changes
[5]; H4K23 mutated to alanine in linked construct
  spectral changes on mutation: only small spectral changes
[5]; H4 aa 11–23, hepta-glycine linker, MLL4-PHD6, no mutation
  binding of the H4 region in linked construct: tightly bound to the protein
[5]; K16 and R17 of H4 mutated to alanine in linked construct
  complex formation on mutation: disrupted formation of the complex

B1: histone H4K16ac (11-21) peptide (peptide, UniProt P62805 12-22, looked up)
peptide: GKGGAK(Ac)RHRKV
notes: histone H4, residues 11-21, acetylated at K16; source: synthetic peptide
[6]
  binding result: binds

B2: histone H4 peptide, residues 8–25 (peptide, UniProt P62805 9-26, looked up)
peptide: KGLGKGGAKRHRKVLRDN
notes: histone H4, residues 8-25; source: synthetic peptide (SynPeptide)
[7]
  binding result: binds

B3: histone H4 peptide, residues 12–23 (peptide, UniProt P62805 13-24, looked up)
peptide: KGGAKRHRKVLR
notes: histone H4, residues 12-23; also called H4_(12–23); source: synthetic peptide (SynPeptide)
[7]
  binding result: binds

B4: histone H4K16ac peptide, residues 11–21 (peptide, UniProt P62805 12-22, looked up)
peptide: GKGGAK(Ac)RHRKV
notes: histone H4, residues 11-21, acetylated at K16; a 15N/13C-labelled copy (Bio-Synthesis) was used to validate assignments; in the structure calculation only G13GAKacRH18 was used, with N-terminal acetyl and C-terminal N-Me amide caps; also called H4K16ac (11–21) peptide; source: synthetic peptide
[8]
  binding result: binds

B5: H4 (residues 11–23) part of the linked H4-G7-MLL4-PHD6 construct, wild type (domain or fragment, UniProt P62805 12-24, looked up)
chain: GKGGAKRHRKVLR
notes: histone H4, residues 11-23; in the assay this stretch stood on ONE chain with m16: H4 11-23, hepta-glycine linker GGGGGGG, MLL4-PHD6; cloned into pDEST-15; also called H4_(11–23)-G7-PHD6 (H4 part); linked H4-MLL4-PHD6 construct; source: E. coli Rosetta2 (DE3) pLysS, purified
[9]
  binding result: binds

B6: H4 (residues 11–23) K12A part of the linked H4-G7-MLL4-PHD6 construct (domain or fragment, UniProt P62805 12-24, looked up)
chain: GAGGAKRHRKVLR
notes: histone H4, residues 11-23, K12A; on one chain with m16 through a GGGGGGG linker; also called H4K12 to alanine in the linked construct; source: E. coli Rosetta2 (DE3) pLysS, purified as WT protein
[9]
  binding result: binds

B7: histone H4 (8-25) peptide (peptide, UniProt P62805 9-26, looked up)
peptide: KGLGKGGAKRHRKVLRDN
notes: histone H4, residues 8-25, unmodified; source: synthetic peptide (SynPeptide)
[10]
  binding result: binds
